Results from ChEMBL document CHEMBL1201862, “PubChem BioAssay data set” (2004).
Activity calls are given as the source filed them.

Key:
Caspase-3 = target: T1, Caspase-3 (Homo sapiens, UniProt P42574); assay type: functional;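 further: Dose-response selectivity test against caspase-3 for candidate inhibitors of sentrin-specific proteases (SENPs)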
T1 sequence (P42574 whole entry): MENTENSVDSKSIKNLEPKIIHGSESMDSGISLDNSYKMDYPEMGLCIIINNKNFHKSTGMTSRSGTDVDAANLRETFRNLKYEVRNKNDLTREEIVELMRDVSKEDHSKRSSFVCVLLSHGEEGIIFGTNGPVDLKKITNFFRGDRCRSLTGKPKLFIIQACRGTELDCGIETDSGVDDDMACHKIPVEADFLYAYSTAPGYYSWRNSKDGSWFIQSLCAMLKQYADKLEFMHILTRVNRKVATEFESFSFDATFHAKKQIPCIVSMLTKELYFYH

[1] = target: DNA (cytosine-5)-methyltransferase 1 (Homo sapiens, UniProt P26358); experiment: inhibition of DNA methylation by DNMT1 – biochemical, fluorescent molecular beacon, confirmation (AID 602386); assay type: functional
[2] = target: Serine/threonine-protein phosphatase (Homo sapiens, UniProt Q9BPW0); experiment: inhibition of protein phosphatase 5 activity – biochemical, fluorescence, dose response (AID 2395)
[3] = target: T2, Replicative DNA helicase DnaB (Mycobacterium tuberculosis, UniProt P9WMR3); experiment: DnaB intein splicing inhibitors, dose response, biochemical, cell-free fluorescence (AID 449749); assay type: functional
T2 sequence (P9WMR3 whole entry): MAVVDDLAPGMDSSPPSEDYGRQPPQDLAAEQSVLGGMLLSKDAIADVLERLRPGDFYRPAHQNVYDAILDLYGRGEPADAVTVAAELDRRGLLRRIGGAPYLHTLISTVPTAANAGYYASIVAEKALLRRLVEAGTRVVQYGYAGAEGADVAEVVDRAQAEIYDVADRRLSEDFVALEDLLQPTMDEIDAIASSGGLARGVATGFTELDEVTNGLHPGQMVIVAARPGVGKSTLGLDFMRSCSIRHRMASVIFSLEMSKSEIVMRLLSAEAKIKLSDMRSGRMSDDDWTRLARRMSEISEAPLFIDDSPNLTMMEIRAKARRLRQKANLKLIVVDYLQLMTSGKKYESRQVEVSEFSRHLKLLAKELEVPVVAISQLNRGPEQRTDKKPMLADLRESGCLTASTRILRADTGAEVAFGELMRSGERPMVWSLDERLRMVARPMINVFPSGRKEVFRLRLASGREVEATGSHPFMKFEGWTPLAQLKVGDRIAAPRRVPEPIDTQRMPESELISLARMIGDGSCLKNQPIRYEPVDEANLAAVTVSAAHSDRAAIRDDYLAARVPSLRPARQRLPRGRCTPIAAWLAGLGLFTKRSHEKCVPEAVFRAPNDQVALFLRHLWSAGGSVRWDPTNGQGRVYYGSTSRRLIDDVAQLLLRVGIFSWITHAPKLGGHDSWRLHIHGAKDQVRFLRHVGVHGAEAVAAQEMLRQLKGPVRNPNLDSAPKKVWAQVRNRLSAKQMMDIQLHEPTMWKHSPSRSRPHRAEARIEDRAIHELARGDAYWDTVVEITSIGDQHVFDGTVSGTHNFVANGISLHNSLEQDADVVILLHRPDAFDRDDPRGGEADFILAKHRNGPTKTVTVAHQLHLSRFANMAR

Protein RecA = target: T3, Protein RecA (Mycobacterium tuberculosis, UniProt P9WHJ3); experiment: Fluorescence Cell-Free Homogeneous Dose Retest to Identify Inhibitors of RecA-Intein Splicing Activity. [Related pubchem assays (depositor defined):AID2097, AID2223, AID489010, AID492950]; assay type: functional
T3 sequence (P9WHJ3 whole entry): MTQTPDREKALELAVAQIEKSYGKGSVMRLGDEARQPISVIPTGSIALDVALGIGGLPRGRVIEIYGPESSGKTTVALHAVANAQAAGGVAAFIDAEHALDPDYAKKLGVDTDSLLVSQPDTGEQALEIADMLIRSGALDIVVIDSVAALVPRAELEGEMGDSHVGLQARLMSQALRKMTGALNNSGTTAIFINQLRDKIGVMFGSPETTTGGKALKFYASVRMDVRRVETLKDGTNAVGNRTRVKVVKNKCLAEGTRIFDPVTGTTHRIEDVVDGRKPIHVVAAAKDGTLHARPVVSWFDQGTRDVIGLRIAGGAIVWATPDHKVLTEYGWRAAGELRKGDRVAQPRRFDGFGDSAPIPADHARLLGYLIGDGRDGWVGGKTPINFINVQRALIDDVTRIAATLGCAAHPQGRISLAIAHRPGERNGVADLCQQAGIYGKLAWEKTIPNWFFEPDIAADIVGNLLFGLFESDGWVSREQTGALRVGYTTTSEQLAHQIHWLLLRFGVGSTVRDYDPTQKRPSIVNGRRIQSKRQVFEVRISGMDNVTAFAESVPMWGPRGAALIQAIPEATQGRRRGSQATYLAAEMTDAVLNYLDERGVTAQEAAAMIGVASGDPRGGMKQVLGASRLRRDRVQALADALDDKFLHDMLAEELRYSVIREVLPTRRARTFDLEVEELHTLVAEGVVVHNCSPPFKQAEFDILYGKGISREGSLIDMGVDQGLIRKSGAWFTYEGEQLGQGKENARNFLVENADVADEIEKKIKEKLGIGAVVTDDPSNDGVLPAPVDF

[4] = cytotoxicity in MITF-independent A375 cells – cell-based, CellTiter-Glo luminescence, dry powder, set 4, counter-screen for MITF inhibitor project, dose response (AID 624364); assay type: functional; details: A-375;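 further: A375 melanoma cells are MITF independent so this is a counter screen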
[5] = target: Tyrosyl-DNA phosphodiesterase 2 (Homo sapiens, UniProt O95551); experiment: potency against TDP2 phosphodiesterase activity – biochemical, epi absorbance, IC50, dose response (AID 743297)
Tyrosyl-DNA phosphodiesterase 2, sequence (O95551 whole entry): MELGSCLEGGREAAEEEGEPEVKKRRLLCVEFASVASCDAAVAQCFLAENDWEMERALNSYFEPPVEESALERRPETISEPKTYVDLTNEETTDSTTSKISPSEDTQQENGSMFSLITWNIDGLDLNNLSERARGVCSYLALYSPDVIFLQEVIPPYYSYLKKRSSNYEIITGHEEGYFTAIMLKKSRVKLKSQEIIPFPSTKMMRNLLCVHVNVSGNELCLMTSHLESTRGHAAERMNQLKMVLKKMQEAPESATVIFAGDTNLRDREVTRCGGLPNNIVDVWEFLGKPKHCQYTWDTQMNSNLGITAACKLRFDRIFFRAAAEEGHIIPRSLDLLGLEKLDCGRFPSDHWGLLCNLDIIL

Serine/threonine-protein phosphatase, sequence (Q9BPW0 whole entry): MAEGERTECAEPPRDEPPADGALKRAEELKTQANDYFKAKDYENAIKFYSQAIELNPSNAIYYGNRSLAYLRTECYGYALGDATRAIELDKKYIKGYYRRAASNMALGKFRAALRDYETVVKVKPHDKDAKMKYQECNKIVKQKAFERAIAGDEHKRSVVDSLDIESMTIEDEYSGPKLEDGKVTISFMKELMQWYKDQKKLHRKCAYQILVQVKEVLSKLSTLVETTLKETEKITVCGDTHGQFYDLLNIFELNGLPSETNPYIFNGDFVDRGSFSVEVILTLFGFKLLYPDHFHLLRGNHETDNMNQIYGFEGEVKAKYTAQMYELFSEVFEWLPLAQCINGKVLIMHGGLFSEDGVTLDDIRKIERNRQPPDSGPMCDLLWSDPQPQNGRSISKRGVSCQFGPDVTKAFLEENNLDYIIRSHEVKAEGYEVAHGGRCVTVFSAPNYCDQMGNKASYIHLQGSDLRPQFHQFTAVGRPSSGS
DNA (cytosine-5)-methyltransferase 1, sequence (P26358 whole entry): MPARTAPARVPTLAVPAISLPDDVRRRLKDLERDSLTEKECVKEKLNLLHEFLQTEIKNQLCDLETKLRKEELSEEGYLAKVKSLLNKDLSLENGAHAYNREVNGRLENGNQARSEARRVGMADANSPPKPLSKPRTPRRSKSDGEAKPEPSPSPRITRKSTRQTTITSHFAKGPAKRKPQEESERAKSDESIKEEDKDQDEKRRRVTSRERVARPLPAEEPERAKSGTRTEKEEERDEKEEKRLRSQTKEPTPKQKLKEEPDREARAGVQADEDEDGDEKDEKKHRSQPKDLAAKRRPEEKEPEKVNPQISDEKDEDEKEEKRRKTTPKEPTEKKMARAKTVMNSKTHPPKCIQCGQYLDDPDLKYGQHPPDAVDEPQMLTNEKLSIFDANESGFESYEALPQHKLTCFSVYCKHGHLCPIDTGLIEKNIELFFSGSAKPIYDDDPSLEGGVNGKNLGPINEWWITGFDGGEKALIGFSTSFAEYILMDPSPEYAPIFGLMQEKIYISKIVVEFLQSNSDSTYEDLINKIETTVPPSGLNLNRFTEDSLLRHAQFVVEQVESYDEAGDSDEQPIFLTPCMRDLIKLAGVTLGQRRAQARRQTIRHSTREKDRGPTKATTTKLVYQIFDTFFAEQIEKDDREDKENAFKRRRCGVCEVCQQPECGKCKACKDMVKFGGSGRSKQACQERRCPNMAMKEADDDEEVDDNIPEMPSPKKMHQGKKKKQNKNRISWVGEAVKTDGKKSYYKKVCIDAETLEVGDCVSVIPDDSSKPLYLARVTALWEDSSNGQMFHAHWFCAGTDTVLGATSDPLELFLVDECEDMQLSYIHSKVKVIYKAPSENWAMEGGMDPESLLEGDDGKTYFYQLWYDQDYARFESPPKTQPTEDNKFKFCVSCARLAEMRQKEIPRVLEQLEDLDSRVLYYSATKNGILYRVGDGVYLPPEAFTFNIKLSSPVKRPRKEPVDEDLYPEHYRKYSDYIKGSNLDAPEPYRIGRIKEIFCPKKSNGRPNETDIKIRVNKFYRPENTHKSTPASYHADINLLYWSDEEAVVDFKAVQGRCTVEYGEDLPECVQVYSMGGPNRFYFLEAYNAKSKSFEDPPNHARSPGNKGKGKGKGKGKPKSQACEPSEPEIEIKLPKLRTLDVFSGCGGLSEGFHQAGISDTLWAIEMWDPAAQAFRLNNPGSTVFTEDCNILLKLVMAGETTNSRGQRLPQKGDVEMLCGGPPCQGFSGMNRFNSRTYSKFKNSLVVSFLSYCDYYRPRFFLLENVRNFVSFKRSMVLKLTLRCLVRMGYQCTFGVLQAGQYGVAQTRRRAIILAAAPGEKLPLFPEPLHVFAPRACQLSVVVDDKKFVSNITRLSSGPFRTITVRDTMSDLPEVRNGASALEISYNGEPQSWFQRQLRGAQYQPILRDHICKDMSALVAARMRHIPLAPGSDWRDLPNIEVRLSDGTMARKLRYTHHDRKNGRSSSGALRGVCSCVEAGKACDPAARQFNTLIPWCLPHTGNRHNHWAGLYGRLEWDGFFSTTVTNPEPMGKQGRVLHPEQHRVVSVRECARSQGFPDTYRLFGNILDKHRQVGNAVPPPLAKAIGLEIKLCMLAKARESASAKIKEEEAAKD

| Structure (SMILES) | IC50 (Caspase-3) | IC50 [1] | IC50 [2] | AC50 [3] | EC50 (Protein RecA) | AC50 [4] | IC50 [5] |
| --- | --- | --- | --- | --- | --- | --- | --- |
| Oc1[nH]c2ccccc2c1N=Nc1ccc(F)cc1 | 7.58 µM (active) | 19.3 µM (active) |  |  |  |  |  |
| O=C1C(Nc2ccccc2)=C(N2CCCCC2)C(=O)c2ccccc21 |  |  | > 67 µM (not active) | 68.5 µM (active) | 2.21 µM (active) | 37.4 µM (active) | > 128 µM (inactive) |
